Measured values: publication PMC6470589, “Contribution of Molecular Structure to Self-Assembling and Biological Properties of Bifunctional Lipid-Like 4-(N-Alkylpyridinium)-1,4-Dihydropyridines” (Pharmaceutics, 2019)
Where two headings read alike, the source gives them in different places.

What was measured:
[1] = system: vascular smooth muscle A7R5 cell line; set-up: method as in doi:10.1016/j.crci.2013.07.003; conditions: read-out: Calcium antagonistic properties, IC50, A7R5; cited from earlier work
[2] = MTT cytotoxicity assay on MH-22A tumor cells, 72 h; assay type: cell-based, mouse; conditions: mouse, MH-22A hepatocarcinoma cells
Description: (§1) Tumor cell lines HT-1080 (human connective tissue fibrosarcoma) and MH-22A (mouse hepatocarcinoma) were used. All of the cells were obtained from the American Type Culture Collection ((ATCC,) Rockville, MD, USA). HT-1080 and MH-22A cells (4 × 10^4 cell/mL) were seeded in 96-well plates in Dulbecco’s modified Eagle’s medium (DMEM) containing 10% fetal bovine serum and cultivated for 72 h at 37 °C, 5% CO2 by exposure to different compounds concentrations (100 μg/mL, 25 μg/mL, 6.25 μg/mL, and 1.56 μg/mL). Cell viability was measured using 3-(4,5-dimethylthiazol-2-yl)-2,5-diphenyl-tetrazolium bromide (MTT) assay. In brief, after incubating with compounds, the culture medium was removed and fresh medium with 0.2 mg/mL MTT was added in each well of the plate. After incubation (3 h, 37 °C, 5% CO2), the medium with MTT was removed, and 200 μL of DMSO was added at once to each sample. The samples were tested at 540 nm on a Tecan multiplate reader Infinite1000 (Tecan Austria GmbH, Salzburg, Austria). The IC50 was calculated using the program Graph Pad Prism® 3.0.

[3] = MTT cytotoxicity assay on HT-1080 tumor cells, 72 h; assay type: cell-based, human; conditions: human, HT-1080 fibrosarcoma cells
Description: as §1

[4] = system: neuroblastoma SH-SY5Y cell line; set-up: method as in doi:10.1016/j.crci.2013.07.003; conditions: read-out: Calcium antagonistic properties, IC50, SH-SY5Y; cited from earlier work
[5] = system: NIH 3T3 (Mouse Swiss Albino embryo fibroblast) cells; experiment: Basal cytotoxicity test (neutral red uptake) with estimation of LD50 from IC50; assay type: cell-based; conditions: category by estimated LD50 (mg/kg)
Description: (§2) The neutral red uptake (NRU) assay was performed according to the standard protocol of Stokes modified by NICEATM-ECVAM validation study. The NRU cytotoxicity assay procedure was based on the ability of viable cells to incorporate and bind neutral red, which is a supravital dye.
(§3) NIH 3T3 (Mouse Swiss Albino embryo fibroblast) cells (9000 cells/well) were placed into 96-well plates for 24 h in DMEM medium containing 5% fetal bovine serum (FBS). Then, they were exposed to the test compound over a range of seven concentrations (1000 μg/mL, 316 μg/mL, 100 μg/mL, 31 μg/mL, 10 μg/mL, 3.0 μg/mL, and 1.0 μg/mL) for 24 h. Untreated cells were used as a control. After 24 h, the medium was removed from all plates. Then, 250 μL of neutral red (NR) solution was added (0.05 mg/mL NR in DMEM 24 h pre-incubated at 37 °C and then filtered before use through a 0.22-µm syringe filter). Plates were incubated for 3 h, and then, cells were washed three times with phosphate buffered saline (PBS). The dye within viable cells was released by extraction with a mixture of acetic acid, ethanol, and water (1:50:49). The absorbance of neutral red was measured using a spectrophotometer multiplate reader Infinite M1000 (Tecan Austria GmbH, Salzburg, Austria) at 540 nm. The optical density (OD) was calculated using the formula: OD (treated cells) × 100/OD (control cells). The IC50 values were calculated using the program Graph Pad Prism® 3.0.
(§4) Data from the in vitro tests were used for estimating the starting dose for acute oral systemic toxicity tests in rodent. The in vivo starting dose is an estimated LD50 value that is calculated by inserting the in vitro IC50 value into a regression formula: log LD50 (mM/kg) = 0.439 log IC50 (mM) + 0.621 [29]. The value is recalculated to mg/kg, and compounds are evaluated in accordance with four toxicity categories: category 1: LD50 ≤ 5 mg/kg (highly toxic); category 2: 5 < LD50 ≤ 50 mg/kg (moderately toxic); category 3: 50 < LD50 ≤ 300 mg/kg (slightly toxic); category 4: 300 < LD50 ≤ 2000 mg/kg (practically non-toxic). Using an alternative in vitro method enables comparing the possible toxicity of new compounds and selecting compounds for further study, which will vastly reduce the number of animal experiments.

[6] = set-up: method as in PMID 26042808; conditions: cited from earlier work
[7] = system: MH-22A (mouse hepatocarcinoma) cells; experiment: MTT cytotoxicity assay on MH-22A tumor cells, 72 h; assay type: cell-based; conditions: MTT, 72 h; ne = no effect in the tested concentration (up to 100 μg/mL)
Description: as §1

[8] = Basal cytotoxicity test (neutral red uptake) with estimation of LD50 from IC50; assay type: cell-based, mouse; conditions: mouse, NIH 3T3 fibroblast cells
Description: as §2, §3, §4

[9] = system: HT-1080 (human connective tissue fibrosarcoma) cells; experiment: MTT cytotoxicity assay on HT-1080 tumor cells, 72 h; assay type: cell-based; conditions: MTT, 72 h; ne = no effect in the tested concentration (up to 100 μg/mL)
Description: as §1

[10] = MTT, 72 h, ne = no effect in the tested concentration (up to 100 μg/mL), read-out: Cytotoxicity IC50, MH-22A
[11] = MTT, 72 h, ne = no effect in the tested concentration (up to 100 μg/mL), read-out: Cytotoxicity IC50, HT-1080
[12] = category by estimated LD50 (mg/kg), read-out: Toxicity category from estimated LD50

Row | Structure (SMILES) | IC50 [1] [µM] | IC50 at 72 h [2, 10] [µM] | IC50 at 72 h [3, 11] [µM] | IC50 [4] [µM] | Toxicity category from estimated LD50 [5] | Blood–brain barrier crossing [6] | IC50 [7] [µM] | LD50 at 24 h [8, 12] [mg/kg] | IC50 at 72 h ([2]; as printed in the supplementary toxicity table, read-out: Cytotoxicity, IC50, MH-22A (supplementary table, for comparison)) [µM] | Cytotoxicity IC50, MH-22A [7] | IC50 at 72 h ([3]; as printed in the supplementary toxicity table, read-out: Cytotoxicity, IC50, HT-1080 (supplementary table, for comparison)) [µM] | Cytotoxicity IC50, HT-1080 [9] | LD50 at 24 h ([8]; calculated from NIH 3T3 NRU IC50, recalculated to mg/kg, read-out: Basal Cytotoxicity Estimated LD50) [mg/kg] | IC50 [9] [µM]
1 | CCCCCCCCCCCC[n+]1cccc(C2C(C(=O)OCC)=C(C)NC(C)=C2C(=O)OCC)c1 [Compound 3] | 0.6 to 0.7 | 15 ± 1 | 37 ± 2 | 5 to 14 | non-toxic | crossed the blood–brain barrier | – | – | – | – | – | – | – | –
2 | C#CCN1C(C)=C(C(=O)OCC)C(c2ccc[n+](CCCCCCCCCCCC)c2)C(C(=O)OCC)=C1C [Compound 6] | 0.6 to 0.7 | 1 to 4 | – | 5 to 14 | – | – | 1 ± 0.2 | 50 to 300 | – | – | – | – | – | –
3 | C#CCOC(=O)C1=C(C)NC(C)=C(C(=O)OCC#C)C1c1ccc[n+](CC)c1 [Compound 7] | – | – | – | – | – | – | – | – | 1000 | did not demonstrate any cytotoxic effect and ne | 1000 | did not demonstrate any cytotoxic effect and ne | > 2700 | –
4 | C#CCOC(=O)C1=C(C)NC(C)=C(C(=O)OCC#C)C1c1ccc[n+](CCCCCCCCCCCC)c1 [Compound 9] | – | 1 to 4 | 1 to 4 | – | – | – | 1 ± 0.2 | 50 to 300 | – | – | – | – | – | 2 ± 0.2
